Key:
Assay in all cases: relative viability (nuclei count vs DMSO), 5 days (fraction); higher = more cells survive
[1] = compound: O=C(CCCCCCNC(=O)c1cnc(N(c2ccccc2)c2ccccc2)nc1)NO [Ricolinostat] + Nc1ncn([C@H]2C[C@H](O)[C@@H](CO)O2)c(=O)n1 [Decitabine] (partner 2 µM)
In short: (§1)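 The day after seeding in 1536-well plates, lung cancer cell lines were treated by pin tool with a single drug, or with a fixed anchor-drug dose together with five library-drug doses (not always all listed) in √10 steps. After 5 days, a combined fix-and-stain solution (final 0.05% Triton X-100, 1% formaldehyde, 1 ug/ml Hoechst) was added. Nuclei counted on 4× images gave relative viability as treated counts over vehicle counts, reported as the median of duplicate plates.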

TGX 221 + Pemetrexed = compound: CC1=CN2C(=O)C=C(N=C2C(=C1)C(C)NC3=CC=CC=C3)N4CCOCC4 [TGX 221] + Nc1nc2[nH]cc(CCc3ccc(C(=O)N[C@@H](CCC(=O)O)C(=O)O)cc3)c2c(=O)[nH]1 [Pemetrexed] (partner 0.2 µM)
In short: as §1

[2] = compound: C1=CC=C(C(=C1)C2=CC=C(C=C2)C3=CSC4=C3C(=C(C(=O)N4)C#N)O)O + COc1cc2c(Oc3ccc(NC(=O)C4(C(=O)Nc5ccc(F)cc5)CC4)cc3F)ccnc2cc1OCCCN1CCOCC1 [Foretinib] (partner 0.25 µM)
In short: as §1

[3] = compound: O=C(CCCCCCNC(=O)c1cnc(N(c2ccccc2)c2ccccc2)nc1)NO [Ricolinostat] + Cc1cc(Nc2cc(N3CCN(C)CC3)nc(Sc3ccc(NC(=O)C4CC4)cc3)n2)n[nH]1 [Tozasertib] (partner 0.1 µM)
In short: as §1

| Cell Line | relative viability ([1]; first compound 0.08 µM) | relative viability ([1]; first compound 0.253 µM) | relative viability ([1]; first compound 0.8 µM) | relative viability ([1]; first compound 2.53 µM) | relative viability (TGX 221 + Pemetrexed; first compound 0.08 µM) | relative viability (TGX 221 + Pemetrexed; first compound 0.253 µM) | relative viability (TGX 221 + Pemetrexed; first compound 0.8 µM) | relative viability (TGX 221 + Pemetrexed; first compound 2.53 µM) | relative viability (TGX 221 + Pemetrexed; first compound 8 µM) | relative viability ([2]; first compound 0.253 µM) | relative viability ([2]; first compound 0.8 µM) | relative viability ([2]; first compound 2.53 µM) | relative viability ([2]; first compound 8 µM) | relative viability ([3]; first compound 0.08 µM) | relative viability ([3]; first compound 0.253 µM) | relative viability ([3]; first compound 0.8 µM) | relative viability ([3]; first compound 2.53 µM) | relative viability ([2]; first compound 0.08 µM) |
| --- | --- | --- | --- | --- | --- | --- | --- | --- | --- | --- | --- | --- | --- | --- | --- | --- | --- | --- |
| LK-2 | 0.268 | 0.364 | 0.24 | 0.212 | 0.232 | 0.279 | 0.219 | 0.275 | 0.247 | 1.01 | 1.37 | 1.3 | 1.7 | 0.181 | 0.181 | 0.202 | 0.174 |  |
| LOU-NH91 |  | 0.794 | 0.826 | 0.887 | 0.446 | 0.409 | 0.341 | 0.446 | 0.367 | 0.96 | 0.92 | 0.914 | 0.868 | 0.571 | 0.639 | 0.595 | 0.528 | 0.942 |
| LU99A | 0.883 | 0.899 | 0.722 | 0.748 | 0.198 | 0.173 | 0.173 | 0.232 | 0.133 | 0.86 | 0.754 | 0.83 | 0.797 | 0.258 | 0.276 | 0.224 | 0.239 | 0.89 |
| NCI-H522 | 0.641 | 0.702 | 0.714 | 0.642 | 0.811 | 1.01 | 1.13 | 1 | 0.915 |  |  |  |  | 0.616 | 0.565 | 0.54 | 0.641 |  |
| NCI-H727 | 0.807 | 0.934 | 0.957 | 0.952 |  |  |  |  |  | 0.97 | 1.27 | 0.789 | 0.843 | 0.448 | 0.704 | 0.734 | 0.563 | 1.26 |
| NCI-H1299 |  |  |  |  |  |  |  |  |  | 1.07 | 1.09 | 1.11 | 1.17 |  |  |  |  | 1.1 |
| NCI-H1563 |  |  |  |  | 0.646 | 0.705 | 0.534 | 0.726 | 0.733 | 0.862 | 0.947 | 0.861 | 0.927 |  |  |  |  | 0.972 |
| NCI-H1623 |  |  |  |  |  |  |  |  |  | 0.971 | 0.864 | 0.889 | 0.798 | 0.489 | 0.462 | 0.477 | 0.424 | 0.915 |
| NCI-H1648 |  | 0.506 | 0.486 | 0.316 |  | 0.883 | 0.811 | 0.722 | 0.674 |  |  |  |  | 0.273 | 0.536 | 0.366 | 0.237 |  |
| NCI-H1703 |  |  |  |  |  |  |  |  |  | 0.355 | 0.35 | 0.363 | 0.409 |  |  |  |  | 0.284 |
| NCI-H2228 |  |  |  |  | 0.357 | 0.369 | 0.356 | 0.313 | 0.332 | 0.871 | 0.96 | 0.847 | 0.588 | 0.37 | 0.235 | 0.237 | 0.141 | 0.764 |
